Experimental data from patent US10316037B1, “Compounds and methods for treating cancer” (YALE UNIVERSITY, priority 2016, dated 2019).

Test system: cancer cell lines
Assay: Anti-cancer activity, CellTiter-Glo luminescence after 72 hours compound treatment
Format: cell-based
Settings: cell line not stated, 4-parameter fit inflection point (IC50)
Protocol: Compounds to be tested for anti-cancer activity were submitted dry, dissolved to 10 mM stocks in DMSO, and stored protected from light at −80° C. until use. DMSO vehicle control wells, and 3 fold serial dilutions of compounds from 10 mM to 6.2 nM were prepared in 384 well plates. Kinamycin and tamoxifen were also added as controls in this manner.
LN2 aliquots of cancer cells (indicated in the tables of FIGS. 3 and 4) were cultured at YCMD and plated in Corning 3707 TC plates at 400 cells/well initial seeding density in 20 uL of growth medium. Cells were incubated overnight at 37′C in a humidified 5% CO2 incubator, and treated with compounds.
20 nL of compound was dispensed into the assay plates using a 384-well pin tool on the Tecan Aquarius. Final assay compound treatments ranged from 10 uM to 6.2 pM, 0.1% DMSO. […]
For assay readout CellTiter-Glo (Promega) was prepared according to manufacturer's instructions and 20 uL/well was added to assay plates using a MultiDrop. Luminescence was read on an Envision plate reader (Perkin Elmer) with 0.3 second sampling time per well after a 10 min. room temperature incubation in the dark.
Toxic effects have low luminescence signal relative to the vehicle control […]. Raw data (luminescence counts per second) were normalized to percent effect by the formula: […]. […]

IC50 [nM] | Structure (SMILES)
35 | C[C@H](N)CCc1c2c(cc(=O)n1Cc1nc(-c3nc(C(=O)NCCN(C)C)cs3)cs1)C1(CC1)NC2=O [compound 17a]
11 | CSCCCNC(=O)c1csc(-c2csc(Cn3c(CC[C@H](C)NC(=O)OC(C)(C)C)c4c(cc3=O)C3(CC3)NC4=O)n2)n1 [compound S4]
